Assay results: US9580390B2, “Indazole compounds as kinase inhibitors and method of treating cancer with same” (University Health Network, priority 2011, dated 2017)

How the values were obtained:
[1] = target: T1, human TTK (Homo sapiens, UniProt P33981); assay: TTK inhibition assay (indirect ELISA); type: biochemical; details: read-out: TTK IC50 Range
T1 construct: amino terminal GST fusion of full length human TTK; purchased Invitrogen
T1 sequence (P33981 1-857): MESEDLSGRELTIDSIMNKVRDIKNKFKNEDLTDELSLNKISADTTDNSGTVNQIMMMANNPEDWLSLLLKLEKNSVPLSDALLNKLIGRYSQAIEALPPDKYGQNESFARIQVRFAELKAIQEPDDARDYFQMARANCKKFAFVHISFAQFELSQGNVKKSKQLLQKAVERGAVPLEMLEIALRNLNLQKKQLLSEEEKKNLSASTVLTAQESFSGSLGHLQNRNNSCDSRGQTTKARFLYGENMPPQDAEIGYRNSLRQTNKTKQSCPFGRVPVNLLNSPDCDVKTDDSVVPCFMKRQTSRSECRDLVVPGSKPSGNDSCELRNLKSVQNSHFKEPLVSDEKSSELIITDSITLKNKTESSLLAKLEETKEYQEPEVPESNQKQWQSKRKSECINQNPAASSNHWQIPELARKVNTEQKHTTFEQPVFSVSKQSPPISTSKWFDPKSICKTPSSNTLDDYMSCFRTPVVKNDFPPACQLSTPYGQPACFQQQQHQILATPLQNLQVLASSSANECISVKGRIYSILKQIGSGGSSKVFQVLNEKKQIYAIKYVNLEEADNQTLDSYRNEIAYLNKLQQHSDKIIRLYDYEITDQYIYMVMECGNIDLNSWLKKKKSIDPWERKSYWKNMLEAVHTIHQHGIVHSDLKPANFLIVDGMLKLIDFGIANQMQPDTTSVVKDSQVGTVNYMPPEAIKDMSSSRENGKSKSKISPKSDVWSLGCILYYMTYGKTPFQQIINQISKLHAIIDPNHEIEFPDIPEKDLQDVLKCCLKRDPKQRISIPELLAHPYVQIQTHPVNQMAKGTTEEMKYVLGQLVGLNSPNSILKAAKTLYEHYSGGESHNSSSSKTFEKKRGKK

[2] = system: Breast cancer cells; assay: Cancer cell line growth inhibition (SRB assay); type: cell-based; details: Homo sapiens; MDA-MB-468; read-out: Cancer Cell Line GI50 Range MDA-MB-468
[3] = system: colon cancer cells (HCT116); assay: Cancer cell line growth inhibition (SRB assay); type: cell-based; details: Homo sapiens, HCT-116; read-out: Cancer Cell Line GI50 Range HCT116
[4] = system: ovarian cancer cells (PA-1); assay: Cancer cell line growth inhibition (SRB assay); type: cell-based; details: Homo sapiens, PA-1; read-out: Cancer Cell Line GI50 Range PA-1

| Structure (SMILES) | IC50 [1] [nM] | GI50 [2] [nM] | GI50 [3] [nM] | GI50 [4] [nM] |
| --- | --- | --- | --- | --- |
| O=C(N[C@@H](c1ccccn1)C1CCCC1)c1ccc2[nH]nc(-c3ccc(N4C5COCC4CC(O)C5)cc3)c2c1 (stereo partly drawn) [Example A425, N-((R)-cyclopentyl(pyridin-2-yl)methyl)-3-(4-((1R,5S,7R)-7-hydroxy-3-oxa-9-azabicyclo[3.3.1]nonan-9-yl)phenyl)-1H-indazole-5-carboxamide] | < 100 | < 100 | < 100 | < 100 |
| O=C(NCC1(OC2CCCC2)CCCCC1)c1ccc2[nH]nc(-c3ccc(OC4CCN(C5COC5)CC4)cc3)c2c1 [Example A434, N-((1-(cyclopentyloxy)cyclohexyl)methyl)-3-(4-((1-(oxetan-3-yl)piperidin-4-yl)oxy)phenyl)-1H-indazole-5-carboxamide] | < 100 | > 500 | > 500 | > 500 |
| CN1[C@@H]2CC[C@H]1C[C@@H](Oc1ccc(-c3n[nH]c4ccc(C(=O)NCC5(OC6CCCC6)CCCCC5)cc34)cc1)C2 [Example A438] | < 100 | > 500 | 100 to 500 | 100 to 500 |
| CCC(CC)(CNC(=O)c1ccc2[nH]nc(-c3ccc(OC4CCN(C)CC4)cc3)c2c1)c1ccccc1 [Example A440, N-(2-ethyl-2-phenylbutyl)-3-(4-((1-methylpiperidin-4-yl)oxy)phenyl)-1H-indazole-5-carboxamide] | < 100 | 100 to 500 | 100 to 500 | 100 to 500 |
| O=C(NCC1(c2ccncc2)CC1)c1ccc2[nH]nc(-c3ccc(N4CCOCC4)cc3)c2c1 [Example A464, 3-(4-morpholinophenyl)-N-((1-(pyridin-4-yl)cyclopropyl)methyl)-1H-indazole-5-carboxamide] | 100 to 500 | > 500 | > 500 | 100 to 500 |
| CN1CCC(CNC(=O)c2ccc3[nH]nc(-c4ccc(N5[C@@H]6CC[C@H]5COC6)cc4)c3c2)(c2ccccc2)CC1 [Example A468, 3-(4-((1R,5S)-3-oxa-8-azabicyclo[3.2.1]octan-8-yl)phenyl)-N-((1-methyl-4-phenylpiperidin-4-yl)methyl)-1H-indazole-5-carboxamide] | < 100 | > 500 | 100 to 500 | 100 to 500 |
| CN1[C@@H]2CC[C@H]1C[C@@H](Oc1ccc(-c3n[nH]c4ccc(C(=O)NCC5(c6ccccn6)CC5)cc34)cc1)C2 [Example A488] | < 100 | > 500 | > 500 | > 500 |
| O=C(NCC1(N2CCOCC2)CCOCC1)c1ccc2[nH]nc(-c3ccc(N4[C@@H]5CC[C@H]4C[C@@H](O)C5)cc3)c2c1 [Example A493, 3-(4-((1R,3R,5S)-3-hydroxy-8-azabicyclo[3.2.1]octan-8-yl)phenyl)-N-((4-morpholinotetrahydro-2H-pyran-4-yl)methyl)-1H-indazoIe-5-carboxamide] | < 100 | > 500 | 100 to 500 | 100 to 500 |
| O=C(NCC1(N2CCOCC2)CCCOC1)c1ccc2[nH]nc(-c3ccc(N4C5CCC4CC(O)C5)cc3)c2c1 [Example A495, 3-(4-((1R,3R.5S)-3-hydroxy-8-azabicyclo[3.2.1]octan-8-yl)phenyl)-N-((3-morpholinotetrahydro-2H-pyran-3-yl)methyl)-1H-indazole-5-carboxamide] | < 100 | 100 to 500 | 100 to 500 | < 100 |

Continued, values first:

| IC50 [1] [nM] | GI50 [2] [nM] | GI50 [3] [nM] | GI50 [4] [nM] | Structure (SMILES) |
| --- | --- | --- | --- | --- |
| < 100 | 100 to 500 | 100 to 500 | 100 to 500 | CCC(CC)(CNC(=O)c1ccc2[nH]nc(-c3ccc(OC4CCN(C5COC5)CC4)cc3)c2c1)c1ccccc1 [Example A439, N-(2-ethyl-2-phenylbutyl)-3-(4-((1-(oxetan-3-yl)piperidin-4-yl)oxy)phenyl)-1H-indazole-5-carboxamide] |
| < 100 | 100 to 500 | 100 to 500 | 100 to 500 | CCC(CC)(CNC(=O)c1ccc2[nH]nc(-c3ccc(N4CCN(C)CC4)cc3)c2c1)c1ccccc1 [Example A441, N-(2-ethyl-2-phenylbutyl)-3-(4-(4-methylpiperazin-1-yl)phenyl)-1H-indazole-5-carboxamide] |
| < 100 | > 500 | > 500 | > 500 | CN1CCC(Oc2ccc(-c3n[nH]c4ccc(C(=O)NCC5(OC6CCCC6)CCCCC5)cc34)cc2)CC1 [Example A442, N-((1-(cyclopentyloxy)cyclohexyl)methyl)-3-(4-((1-methylpiperidin-4-yl)oxy)phenyl)-1H-indazole-5-carboxamide] |
| < 100 | > 500 | 100 to 500 | 100 to 500 | CCC(CC)(CNC(=O)c1ccc2[nH]nc(-c3ccc(OC4CCN(C[C@@H](C)O)CC4)cc3)c2c1)c1ccccc1 [Example A443, (R)-N-(2-ethyl-2-phenylbutyl)-3-(4-((1-(2-hydroxypropyl)piperidin-4-yl)oxy)phenyl)-1H-indazole-5-carboxamide] |
| < 100 | > 500 | > 500 | > 500 | C[C@@H](O)CN1CCC(Oc2ccc(-c3n[nH]c4ccc(C(=O)NCC5(OC6CCCC6)CCCCC5)cc34)cc2)CC1 [Example A444, (R)-N-((1-(cyclopentyloxy)cyclohexyl)methyl)-3-(4-((1-(2-hydroxypropyl)piperidin-4-yl)oxy)phenyl)-1H-indazole-5-carboxamide] |
| < 100 | > 500 | > 500 | > 500 | O=C(NCC1(N2CCOCC2)CCC(F)(F)CC1)c1ccc2[nH]nc(-c3ccc(N4CCOCC4)cc3)c2c1 [Example A460, N-((4,4-difluoro-1-morpholinocyclohexyl)methyl)-3-(4-morpholinophenyl)-1H-indazole-5-carboxamide] |
| < 100 | > 500 | > 500 | > 500 | O=C(NCC1(c2cccnc2)CC1)c1ccc2[nH]nc(-c3ccc(N4CCOCC4)cc3)c2c1 [Example A461, 3-(4-morpholinophenyl)-N-((1-(pyridin-3-yl)cyclopropyl)methyl)-1H-indazole-5-carboxamide] |
| < 100 | 100 to 500 | 100 to 500 | < 100 | CCC(CC)(CNC(=O)c1ccc2[nH]nc(-c3ccc(N4CCOCC4)cc3)c2c1)N1CCOCC1 [Example A463, N-(2-ethyl-2-morpholinobutyl)-3-(4-morpholinophenyl)-1H-indazole-5-carboxamide] |
| < 100 | 100 to 500 | 100 to 500 | < 100 | CCC(CC)(CNC(=O)c1ccc2[nH]nc(-c3ccc(N4CCN(C)CC4)cc3)c2c1)N1CCOCC1 [Example A465, N-(2-ethyl-2-morpholinobutyl)-3-(4-(4-methylpiperazin-1-yl)phenyl)-1H-indazole-5-carboxamide] |
| 100 to 500 | > 500 | > 500 | > 500 | CN1CCN(C2(CNC(=O)c3ccc4[nH]nc(-c5ccc(N6CCOCC6)cc5)c4c3)CCCC2)CC1 [Example A467, N-((1-(4-methylpiperazin-1-yl)cyclopentyl)methyl)-3-(4-morpholinophenyl)-1H-indazole-5-carboxamide] |
| < 100 | > 500 | 100 to 500 | 100 to 500 | CN1CCC(CO)(Cc2ccc(-c3n[nH]c4ccc(C(=O)NCC5(N6CCOCC6)CCCCC5)cc34)cc2)CC1 [Example A486, 3-(4-((4-(hydroxylmethyl)-1-methylpiperidin-4-yl)methyl)phenyl)-N-((1-morpholinocyclohexyl)methyl)-1H-indazole-5-carboxamide] |
| 100 to 500 | > 500 | > 500 | > 500 | CC1(C)CC(=O)c2cc(-c3n[nH]c4ccc(C(=O)NCC5(N6CCOCC6)CCCCC5)cc34)ccc2O1 [Example A490, 3-(2,2-dimethyl-4-oxochroman-6-yl)-N-((1-morpholinocyclohexyl)methyl)-1H-indazole-5-carboxamide] |
| < 100 | > 500 | > 500 | > 500 | Cc1cc(=O)n(C)c2ccc(-c3n[nH]c4ccc(C(=O)NCC5(N6CCOCC6)CCCCC5)cc34)cc12 [Example A491, 3-(1,4-dimethyl-2-oxo-1,2-dihydroquinolin-6-yl)-N-((1-morpholinocyclohexyl)methyl)-1H-indazole-5-carboxamide] |
